Measurements published in patent publication US6828320B2, “Heterocyclic compounds” (SmithKline Beecham Corporation, priority 1996, dated 2004).
Where a name gives a salt, the structure may show the parent alone. Read-outs that look alike come from different tables or passages of the source.

Tests used:
[1] = test system: HB4a cell line transfected with ras; assay: Cell proliferation assay, HB4a ras; format: cell-based, human; details: Homo sapiens, HB4a, 96 h, read-out: Cell Proliferation HB4a ras
[2] = target: HB4a cell line transformed by over-expression of c-erbB-2 (Homo sapiens, UniProt P04626); assay: Cell proliferation assay, HB4a erbB-2; format: cell-based
Experimental: The cell proliferation assay uses an immortalised human breast epithelial cell line (HB4a) which has been transformed by over-expression of c-erbB-2. Growth of these cells in low serum is dependent upon the c-erbB-2 tyrosine kinase activity. […] Cells are plated at 3000/ well in 96-well plates in 0.1 ml medium and allowed to attach overnight. test compound is added in 0.1 ml medium, with a final concentration of 0.5% DMSO, and the plates incubated for 4 days at 37° C. The cells are then examined microscopically for evidence of morphological detransformation and cell mass is estimated by staining with methylene blue and measuring the absorbance at 620 nm. […] Activity against a range of naturally occurring EGFr or c-erbB-2 over-expressing human tumour cell lines (BT474-breast, HN5-head and neck, N87-gastric and Calu3-lung) is assessed with selected compounds by the same methodology.

[3] = target: T1, EGFr isolated from solubilised A431 cell membranes (Homo sapiens, UniProt P00533); assay: Substrate phosphorylation assay, EGFr; format: biochemical
T1 construct: EGFr isolated from solubilised A431 cell membranes; endogenous in cells; host or cells: A431 cell membranes (solubilised)
Experimental: (§1) The substrate phosphorylation assays use baculovirus expressed, recombinant constructs of the intracellular domains of c-erbB-2 and c-erbB-4 that are constitutively active and EGFr isolated from solubilised A431 cell membranes. The method measures the ability of the isolated enzymes to catalyse the transfer of the γ-phosphate from ATP onto tyrosine residues in a biotinylated synthetic peptide (Biotin-[…]. […] The reaction is stopped by the addition of EDTA (final concentration 0.15 mM) and a sample is transferred to a streptavidin-coated 96-well plate. The plate is washed and level of phosphotyrosine on the peptide is determined using a Europium-labelled antiphosphotyrosine antibody and quantified with a time-resolved fluorescence technique.

[4] = target: T2, c-erbB-4 (baculovirus expressed, recombinant intracellular domain) (Homo sapiens, UniProt Q15303); assay: Substrate phosphorylation assay, c-erbB-4; format: biochemical
T2 construct: baculovirus expressed, recombinant constructs of the intracellular domains of c-erbB-2 and c-erbB-4; made in house
Experimental: as §1

[5] = target: T3, c-erbB-2 (baculovirus expressed, recombinant intracellular domain) (Homo sapiens, UniProt P04626); assay: Substrate phosphorylation assay, c-erbB-2; format: biochemical
T3 construct: baculovirus expressed, recombinant constructs of the intracellular domains of c-erbB-2 and c-erbB-4; made in house
Experimental: as §1

[6] = 4 days at 37° C., methylene blue staining, general toxicity control
[7] = 4 days at 37° C., methylene blue staining; read-out: Cell Proliferation HB4a erbB-2
[8] = read-out: Substrate Phosphorylation erbB-2
[9] = 30 minutes, room temperature, ATP and peptide at Km concentrations

T2 sequence (Q15303 676-1308 limits assumed): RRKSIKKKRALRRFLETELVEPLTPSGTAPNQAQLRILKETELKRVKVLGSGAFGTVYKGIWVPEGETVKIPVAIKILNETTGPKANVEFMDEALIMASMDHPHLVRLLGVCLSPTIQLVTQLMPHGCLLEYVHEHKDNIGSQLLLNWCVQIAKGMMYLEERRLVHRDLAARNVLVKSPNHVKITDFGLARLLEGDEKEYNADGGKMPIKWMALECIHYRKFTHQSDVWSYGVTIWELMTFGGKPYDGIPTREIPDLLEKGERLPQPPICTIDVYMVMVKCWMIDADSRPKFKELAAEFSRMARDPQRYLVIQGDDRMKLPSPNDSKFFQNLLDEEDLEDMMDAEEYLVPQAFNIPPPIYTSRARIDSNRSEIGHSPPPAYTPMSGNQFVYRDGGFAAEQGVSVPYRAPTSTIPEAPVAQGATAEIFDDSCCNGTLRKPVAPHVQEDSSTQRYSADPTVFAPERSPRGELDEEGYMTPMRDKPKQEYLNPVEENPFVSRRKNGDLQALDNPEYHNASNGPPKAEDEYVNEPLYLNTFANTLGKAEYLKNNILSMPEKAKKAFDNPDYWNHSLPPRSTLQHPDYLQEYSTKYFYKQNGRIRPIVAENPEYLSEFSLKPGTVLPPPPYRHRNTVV
T1 sequence (P00533 25-1210): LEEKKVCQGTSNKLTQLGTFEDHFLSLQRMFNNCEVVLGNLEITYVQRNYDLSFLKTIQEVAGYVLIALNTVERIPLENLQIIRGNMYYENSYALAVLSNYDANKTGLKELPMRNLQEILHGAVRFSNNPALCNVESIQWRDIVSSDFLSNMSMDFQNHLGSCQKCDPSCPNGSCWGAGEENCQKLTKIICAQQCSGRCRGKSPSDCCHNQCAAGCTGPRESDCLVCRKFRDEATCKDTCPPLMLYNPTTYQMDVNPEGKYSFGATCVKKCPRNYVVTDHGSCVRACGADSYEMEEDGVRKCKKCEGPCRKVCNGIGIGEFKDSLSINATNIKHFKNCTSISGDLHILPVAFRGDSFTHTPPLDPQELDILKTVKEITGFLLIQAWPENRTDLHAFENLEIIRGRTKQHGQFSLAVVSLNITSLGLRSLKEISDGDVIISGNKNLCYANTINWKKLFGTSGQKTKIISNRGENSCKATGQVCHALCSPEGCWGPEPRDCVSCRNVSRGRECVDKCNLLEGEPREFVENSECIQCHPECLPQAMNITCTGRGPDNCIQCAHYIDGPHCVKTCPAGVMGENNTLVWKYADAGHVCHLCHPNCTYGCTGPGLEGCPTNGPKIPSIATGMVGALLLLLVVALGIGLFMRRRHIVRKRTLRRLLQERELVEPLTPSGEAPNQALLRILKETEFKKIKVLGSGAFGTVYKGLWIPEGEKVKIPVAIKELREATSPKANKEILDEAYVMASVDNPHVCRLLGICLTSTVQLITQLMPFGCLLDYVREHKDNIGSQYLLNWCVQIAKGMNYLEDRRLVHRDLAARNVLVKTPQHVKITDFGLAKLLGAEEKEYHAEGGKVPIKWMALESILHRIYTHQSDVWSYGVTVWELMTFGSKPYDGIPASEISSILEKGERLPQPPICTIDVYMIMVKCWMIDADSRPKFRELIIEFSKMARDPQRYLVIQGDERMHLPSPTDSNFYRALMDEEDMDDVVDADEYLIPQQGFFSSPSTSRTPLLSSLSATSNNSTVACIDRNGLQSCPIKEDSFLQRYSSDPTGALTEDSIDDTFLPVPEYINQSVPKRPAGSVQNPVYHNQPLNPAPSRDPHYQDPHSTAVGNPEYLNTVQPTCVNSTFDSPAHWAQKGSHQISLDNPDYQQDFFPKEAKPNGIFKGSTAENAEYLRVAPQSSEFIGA
T3 sequence (P04626 676-1255 limits assumed): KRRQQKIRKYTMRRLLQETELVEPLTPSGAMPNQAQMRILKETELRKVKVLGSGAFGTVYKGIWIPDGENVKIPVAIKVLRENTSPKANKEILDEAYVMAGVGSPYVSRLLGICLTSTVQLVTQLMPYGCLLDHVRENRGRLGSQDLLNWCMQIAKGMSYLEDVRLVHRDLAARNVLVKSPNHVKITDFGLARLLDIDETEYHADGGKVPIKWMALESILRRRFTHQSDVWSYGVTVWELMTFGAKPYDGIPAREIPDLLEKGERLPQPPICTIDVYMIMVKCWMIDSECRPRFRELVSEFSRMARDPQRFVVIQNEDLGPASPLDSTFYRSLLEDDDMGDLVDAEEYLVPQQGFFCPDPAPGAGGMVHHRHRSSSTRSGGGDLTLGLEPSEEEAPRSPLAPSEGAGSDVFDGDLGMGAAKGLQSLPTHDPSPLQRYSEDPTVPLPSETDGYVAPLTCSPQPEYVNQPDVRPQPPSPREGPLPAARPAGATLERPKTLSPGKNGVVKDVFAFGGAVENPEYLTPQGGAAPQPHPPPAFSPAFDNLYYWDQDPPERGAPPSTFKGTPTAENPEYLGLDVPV
Sequence of HB4a cell line transformed by over-expression of c-erbB-2 (P04626 whole entry, stated change not applied): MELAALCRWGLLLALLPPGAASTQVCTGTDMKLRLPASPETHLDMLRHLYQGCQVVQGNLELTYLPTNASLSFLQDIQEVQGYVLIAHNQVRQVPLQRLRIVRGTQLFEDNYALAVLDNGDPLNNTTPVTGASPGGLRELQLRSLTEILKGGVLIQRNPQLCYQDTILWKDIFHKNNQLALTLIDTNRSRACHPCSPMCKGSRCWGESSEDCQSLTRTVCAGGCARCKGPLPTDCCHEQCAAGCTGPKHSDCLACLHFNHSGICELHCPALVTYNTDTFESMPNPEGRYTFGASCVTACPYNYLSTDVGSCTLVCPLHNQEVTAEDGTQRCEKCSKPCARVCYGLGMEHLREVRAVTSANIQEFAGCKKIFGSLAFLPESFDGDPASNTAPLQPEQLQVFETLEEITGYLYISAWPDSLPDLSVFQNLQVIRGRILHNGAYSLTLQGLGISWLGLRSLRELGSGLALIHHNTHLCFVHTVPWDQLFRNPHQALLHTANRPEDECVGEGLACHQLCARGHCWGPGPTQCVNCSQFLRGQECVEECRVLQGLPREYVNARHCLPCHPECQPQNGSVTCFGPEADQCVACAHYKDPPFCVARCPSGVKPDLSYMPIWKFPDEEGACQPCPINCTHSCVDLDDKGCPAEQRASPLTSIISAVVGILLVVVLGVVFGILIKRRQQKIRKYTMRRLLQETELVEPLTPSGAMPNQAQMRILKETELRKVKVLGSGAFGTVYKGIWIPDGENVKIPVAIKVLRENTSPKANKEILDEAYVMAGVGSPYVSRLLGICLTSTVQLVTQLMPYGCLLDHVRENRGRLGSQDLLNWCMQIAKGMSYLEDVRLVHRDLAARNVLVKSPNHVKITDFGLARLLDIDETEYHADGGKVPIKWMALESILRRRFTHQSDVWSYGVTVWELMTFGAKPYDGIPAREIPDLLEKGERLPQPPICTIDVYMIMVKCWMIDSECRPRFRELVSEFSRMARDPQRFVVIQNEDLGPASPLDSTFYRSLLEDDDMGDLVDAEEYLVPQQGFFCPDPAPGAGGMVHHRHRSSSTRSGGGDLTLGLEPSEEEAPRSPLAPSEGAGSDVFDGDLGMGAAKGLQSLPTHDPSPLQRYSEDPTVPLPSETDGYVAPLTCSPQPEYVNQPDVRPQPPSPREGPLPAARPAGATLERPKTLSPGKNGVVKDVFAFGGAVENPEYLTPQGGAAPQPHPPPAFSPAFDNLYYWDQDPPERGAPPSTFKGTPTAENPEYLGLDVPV

| Structure (SMILES) | IC50 [1, 6] | GI50 [2, 7] | IC50 [3] | IC50 [4] | IC50 [5, 8] | IC50 [1] | GI50 ([2]; read-out: Cell Proliferation HB4a erbB-2; 4 days at 37° C., methylene blue staining) | IC50 [5] | IC50 [3, 9] |
| --- | --- | --- | --- | --- | --- | --- | --- | --- | --- |
| Cc1nnc(-c2ccc3ncnc(Nc4ccc5c(cnn5Cc5cc(F)cc(F)c5)c4)c3c2)o1 [Example 31, (1-(3,5-Difluoro-benzyl)-1H-indazol-5-yl)-(6-(5-methyl-1,3,4-oxadiazol-2-yl)-quinazolin-4-yl)-amine hydrochloride] | > 50 µM | 1.1 µM | 0.009 µM | – | – | – | – | – | – |
| Cc1cc(-c2ccc3ncnc(Nc4ccc(OCc5ccccc5)cc4)c3c2)on1 [Example 47, (4-Benzyloxy-phenyl)-(-6-(3-methylisoxazol-5-yl)-quinazolin-4-yl)-amine hydrochloride] | – | – | – | 5 µM | 0.49 µM | – | – | – | – |
| Cc1nc(-c2ccc3ncnc(Nc4ccc(OCc5ccccc5)cc4)c3c2)no1 [Example 56, (4-Benzyloxy-phenyl)-(6-(5-methyl-1,2,4-oxadiazol-3-yl)-quinazolin-4-yl)-amine] | > 50 µM | 1.7 µM | – | > 10 µM | 0.26 µM | – | – | – | – |
| Cn1nncc1-c1ccc2ncnc(Nc3ccc(OCc4ccccc4)cc3)c2c1 [Example 8, (4-Benzyloxy-phenyl)-(6-(3-methyl-1,2,3-triazol-4-yl)-quinazolin-4-yl)-amine] | – | – | – | > 10 µM | 0.15 µM | – | – | – | – |
| COC(=O)c1ccc(-c2ccc3ncnc(Nc4ccc(OCc5ccccc5)cc4)c3c2)o1 [Example 51, 5-(4-(4-Benzyloxy-phenylamino)-quinazolin-6-yl)-furan-2-carboxylic acid methyl ester] | 21 µM | 38 µM | – | 5.8 µM | 0.02 µM | – | – | – | – |
| CN(C)CCc1nc(-c2ccc3ncnc(Nc4ccc(OCc5ccccc5)cc4)c3c2)no1 [Example 57, (4-Benzyloxy-phenyl)-(6-(5-(2-dimethylamino-ethyl)-1,2,4-oxadiazol-3-yl)-quinazolin-4-yl)-amine] | 2.7 µM | 1.2 µM | – | – | 0.083 µM | – | – | – | – |
| c1ccc(COc2ccc(Nc3ncnc4ccc(-c5ncccn5)cc34)cc2)cc1 [Example 4, (4-Benzyloxy-phenyl)-(6-(pyrimidin-2-yl)-quinazolin-4-yl)-amine] | 50 µM | – | – | 6.4 µM | 0.035 µM | – | – | – | – |
| CN(CCS(C)(=O)=O)Cc1ccc(-c2ccc3ncnc(Nc4ccc(OCc5ccccc5)cc4)c3c2)o1 [Example 48, (4-Benzyloxy-phenyl)-(6-(5-(((2-methanesulphonyl-ethyl)-methyl-amino)-methyl)-furan-2-yl)-quinazolin-4-yl)-amine] | 9.5 µM | 0.08 µM | – | 1.1 µM | 0.038 µM | – | – | – | – |
| c1ccc(COc2ccc(Nc3ncnc4ccc(-c5ccco5)cc34)cc2)cc1 [Example 1, (4-Benzyloxy-phenyl)-(6-furan-2-yl-quinazolin-4-yl)-amine] | – | – | – | 2.5 µM | 0.04 µM | – | – | – | – |
| Cc1nocc1-c1ccc2ncnc(Nc3ccc(OCc4ccccc4)cc3)c2c1 [Example 85, (4-Benzyloxy-phenyl)-(6-(3-methyl-[1,2]oxazol-4-yl)-quinazolin-4-yl)-amine] | 2.3 µM | 2.1 µM | – | 9.7 µM | 0.13 µM | – | – | – | – |
| CS(=O)(=O)NCCNCc1ccc(-c2ccc3ncnc(Nc4ccc(OCc5ccccc5)cc4)c3c2)o1 [Example 49, N-(2-((5-(4-(4-Benzyloxy-phenylamino)-quinazolin-6-yl)-furan-2-ylmethyl)-amino) -ethyl)-methanesulphonamide dihydrochloride] | – | – | – | – | – | 3.5 µM | 0.47 µM | 0.033 µM | – |
| Cc1nnc(-c2ccc3ncnc(Nc4ccc5c(cnn5Cc5ccccc5)c4)c3c2)[nH]1 [Example 42, (1-Benzyl-1H-indazol-5-yl)-(6-(5-methyl-1,3,4-triazol-2-yl)-quinazolin-4-yl)-amine] | 20 µM | 0.57 µM | – | – | 0.007 µM | – | – | – | – |
| CS(=O)(=O)Cc1nc(-c2ccc3ncnc(Nc4ccc5c(cnn5Cc5ccccc5)c4)c3c2)no1 [Example 60, (1-Benzyl-1H-indazol-5-yl)-(6-(5-methanesulphonylmethyl-1,2,4-oxadiazol-3-yl)-quinazolin-4-yl)-amine] | 50 µM | 0.54 µM | – | – | – | – | – | – | 1.9 µM |
| Cc1nc(-c2ccc3ncnc(Nc4ccc5c(cnn5Cc5ccccc5)c4)c3c2)no1 [Example 61] | 3.1 µM | 0.5 µM | – | – | – | – | – | – | 0.81 µM |
| CNS(=O)(=O)CCNCc1ccc(-c2ccc3ncnc(Nc4ccc(OCc5ccccc5)cc4)c3c2)o1 [Example 54, 2-((5-(4-(4-Benzyloxy-phenylamino)-quinazolin-6-yl)-furan-2-ylmethyl)-amino)-ethanesulphonic acid methylamide] | 7.4 µM | 0.14 µM | – | 0.28 µM | 0.024 µM | – | – | – | – |
| c1ccc(COc2ccc(Nc3ncnc4ccc(-c5nnn[nH]5)cc34)cc2)cc1 [Example 40, (4-Benzyloxy-phenyl)-(6-(1H-tetrazol-5-yl)-quinazolin-4-yl)-amine] | > 50 µM | > 50 µM | – | 0.97 µM | 0.003 µM | – | – | – | – |
| NS(=O)(=O)CCNCc1ccc(-c2ccc3ncnc(Nc4ccc(OCc5ccccc5)cc4)c3c2)o1 [Example 50, 2-((5-(4-(4-Benzyloxy-phenylamino)-quinazolin-6-yl)-furan-2-ylmethyl)-amino)-ethanesulphonic acid amide] | 7.1 µM | 0.86 µM | – | 0.1 µM | 0.012 µM | – | – | – | – |
| c1ccc(COc2ccc(Nc3ncnc4ccc(-c5ccccn5)cc34)cc2)cc1 [Example 3, (4-Benzyloxy-phenyl)-(6-(pyridin-2-yl)-quinazolin-4-yl)-amine] | 16 µM | 23 µM | – | 8.6 µM | 0.029 µM | – | – | – | – |
| CS(=O)(=O)CCNC(=O)c1ccc(-c2ccc3ncnc(Nc4ccc(OCc5ccccc5)cc4)c3c2)o1 [Example 53, 5-[4-(4-Benzyloxy-phenylamino)-quinazolin-6-yl]-furan-2-carboxylic acid (2-methanesulphonyl-ethyl)-amide hydrochloride] | 36 µM | 1.8 µM | – | – | – | – | – | – | 0.013 µM |
| O=Cc1ccc(-c2ccc3ncnc(Nc4ccc(OCc5ccccc5)cc4)c3c2)o1 [Example 9, 5-(4-(4-Benzyloxy-phenylamino)-quinazolin-6-yl)-furan-2-carbaldehyde] | 5.7 µM | 0.55 µM | – | 0.43 µM | 0.024 µM | – | – | – | – |
| Cc1noc(-c2ccc3ncnc(Nc4ccc5c(cnn5Cc5ccccc5)c4)c3c2)n1 [Example 55, (1-Benzyl-1H-indazol-5-yl)-(6-(3-methyl-1,2,4-oxadiazol-5-yl)-quinazolin-4-yl)-amine hydrochloride] | 20 µM | 2 µM | – | 1 µM | 0.01 µM | – | – | – | – |
| CN(C)Cc1nc(-c2ccc3ncnc(Nc4ccc(OCc5ccccc5)cc4)c3c2)no1 [Example 58, (4-Benzyloxy-phenyl)-(6-(5-(dimethylaminomethyl)-1,2,4-oxadiazol-3-yl)-quinazolin-4-yl)-amine] | 28 µM | 8.6 µM | – | – | 0.006 µM | – | – | – | – |
| CS(=O)(=O)CCNCc1nc(-c2ccc3ncnc(Nc4ccc5c(cnn5Cc5ccccc5)c4)c3c2)no1 [Example 59, (1-Benzyl-1H-indazol-5-yl)-(6-(5-(((2-methanesulphonyl-ethyl)-amino)-methyl)-1,2,4-oxadiazol-3-yl)-quinazolin-4-yl)-amine] | 11 µM | 0.79 µM | – | – | – | – | – | – | 0.011 µM |
